Test results from patent US20080004302A1, “Novel Compounds” (ASTRAZENECA AB, priority 2006, published 2008).
Where a name gives a salt, the structure may show the parent alone.

Legend:
[1] = molecular target: T1, FGFR1 IIIc (Homo sapiens, UniProt P11362); assay: Cell based inhibition of transiently expressed FGFR1 IIIc phosphorylation (Cos-1 cells); details: Cos-1 cells, phospho-FGFR1; upper bound of bin; read-out: IC50
T1 construct: host or cells: Cos-1
Experimental: This assay is designed to detect inhibitors of transiently expressed FGFR1 phosphorylation by antibody staining of fixed cells detected using ArrayScan technology.
To undertake the assay, Cos-1 cells were harvested at 90-95% confluence for cell transfection. For each 96-well plate, 24 ul Lipofectamine 2000 was added to 809 ul OptiMEM and incubated at room temperature for 5 minutes. […] Equal volumes of DNA and Lipofectamine 2000 were combined (DNA: Lipid=1:1.2 ratio) and incubated at room temperature for 20 minutes.
The harvested Cos-1 cells are counted using a coulter counter and diluted further with 1% FCS/DMEM to 2.5×10^5 cells/ml. For each 96-well, 8.33 ml cells were required. […] Media was removed from the wells using vacuum aspiration; cells were fixed by adding 50μl of 100% methanol to each well and incubated at room temperature for 20 minutes.
The plates were read on an Arrayscan (Cellomics).

[2] = molecular target: T1, FGFR1 IIIc; assay: Cell based inhibition of transiently expressed FGFR1 IIIc phosphorylation via use of ECHO technology (Cos-1 cells); details: Cos-1 cells, phospho-FGFR1, ECHO dosing; upper bound of bin; read-out: IC50
[3] = molecular target: FGFR1 kinase (Homo sapiens, UniProt P11362); assay: Kinase assay (using Caliper technology); format: biochemical; details: FGFR1 kinase, Caliper; upper bound of bin; read-out: IC50
In short: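 Human FGFR1 kinase activity measured with a 13-mer fluorescently tagged FGFR1-specific peptide substrate; compounds serially diluted in 5% (v/v) DMSO. Reactions ran 1.5 h at room temperature, stopped with EDTA-containing HEPES pH 7.5 buffer. Phosphorylated and unphosphorylated peptide separated by microfluidic mobility shift.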

[4] = system: Erk phosphorylation; assay: Growth factor (bFGF) stimulated Erk phosphorylation in NIH 3T3 cells; details: Mus musculus
[5] = molecular target: T2, human IGF1R (Homo sapiens, UniProt P08069); assay: Inhibition of insulin-like growth factor-1 receptor phosphorylation in R+ cells; format: cell-based; details: 30 nM IGF1, read-out: IGF cell class
T2 construct: expressed in transfected cells; host or cells: R+ cells (R- mouse fibroblasts transfected with human IGF1R)

[6] = NIH3T3, NIH 3T3 cells, 3 ng/ml bFGF, upper bound of bin

Sequence of FGFR1 kinase (P11362 22-822): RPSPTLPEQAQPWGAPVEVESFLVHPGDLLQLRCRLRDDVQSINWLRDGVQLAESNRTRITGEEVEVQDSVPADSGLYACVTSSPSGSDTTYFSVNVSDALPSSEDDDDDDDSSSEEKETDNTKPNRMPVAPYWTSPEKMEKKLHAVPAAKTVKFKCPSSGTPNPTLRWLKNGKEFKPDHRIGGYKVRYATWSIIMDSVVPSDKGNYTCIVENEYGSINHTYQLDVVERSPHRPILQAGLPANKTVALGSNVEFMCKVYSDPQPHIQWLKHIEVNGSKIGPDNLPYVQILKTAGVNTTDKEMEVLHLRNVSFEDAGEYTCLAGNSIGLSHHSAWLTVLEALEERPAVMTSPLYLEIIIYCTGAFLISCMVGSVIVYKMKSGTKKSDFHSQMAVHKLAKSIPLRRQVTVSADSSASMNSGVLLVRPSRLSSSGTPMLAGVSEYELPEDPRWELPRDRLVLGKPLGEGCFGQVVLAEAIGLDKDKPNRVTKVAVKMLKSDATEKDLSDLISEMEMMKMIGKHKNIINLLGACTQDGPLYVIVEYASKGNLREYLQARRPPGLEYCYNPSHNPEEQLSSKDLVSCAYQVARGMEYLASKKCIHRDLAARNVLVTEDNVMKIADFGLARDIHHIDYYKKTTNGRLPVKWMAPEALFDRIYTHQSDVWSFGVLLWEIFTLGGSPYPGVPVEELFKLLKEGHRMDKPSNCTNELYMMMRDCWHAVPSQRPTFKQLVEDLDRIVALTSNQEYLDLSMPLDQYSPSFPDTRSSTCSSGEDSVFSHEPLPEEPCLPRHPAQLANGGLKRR
T1 sequence (P11362 22-822): as above
T2 sequence (P08069 31-1367): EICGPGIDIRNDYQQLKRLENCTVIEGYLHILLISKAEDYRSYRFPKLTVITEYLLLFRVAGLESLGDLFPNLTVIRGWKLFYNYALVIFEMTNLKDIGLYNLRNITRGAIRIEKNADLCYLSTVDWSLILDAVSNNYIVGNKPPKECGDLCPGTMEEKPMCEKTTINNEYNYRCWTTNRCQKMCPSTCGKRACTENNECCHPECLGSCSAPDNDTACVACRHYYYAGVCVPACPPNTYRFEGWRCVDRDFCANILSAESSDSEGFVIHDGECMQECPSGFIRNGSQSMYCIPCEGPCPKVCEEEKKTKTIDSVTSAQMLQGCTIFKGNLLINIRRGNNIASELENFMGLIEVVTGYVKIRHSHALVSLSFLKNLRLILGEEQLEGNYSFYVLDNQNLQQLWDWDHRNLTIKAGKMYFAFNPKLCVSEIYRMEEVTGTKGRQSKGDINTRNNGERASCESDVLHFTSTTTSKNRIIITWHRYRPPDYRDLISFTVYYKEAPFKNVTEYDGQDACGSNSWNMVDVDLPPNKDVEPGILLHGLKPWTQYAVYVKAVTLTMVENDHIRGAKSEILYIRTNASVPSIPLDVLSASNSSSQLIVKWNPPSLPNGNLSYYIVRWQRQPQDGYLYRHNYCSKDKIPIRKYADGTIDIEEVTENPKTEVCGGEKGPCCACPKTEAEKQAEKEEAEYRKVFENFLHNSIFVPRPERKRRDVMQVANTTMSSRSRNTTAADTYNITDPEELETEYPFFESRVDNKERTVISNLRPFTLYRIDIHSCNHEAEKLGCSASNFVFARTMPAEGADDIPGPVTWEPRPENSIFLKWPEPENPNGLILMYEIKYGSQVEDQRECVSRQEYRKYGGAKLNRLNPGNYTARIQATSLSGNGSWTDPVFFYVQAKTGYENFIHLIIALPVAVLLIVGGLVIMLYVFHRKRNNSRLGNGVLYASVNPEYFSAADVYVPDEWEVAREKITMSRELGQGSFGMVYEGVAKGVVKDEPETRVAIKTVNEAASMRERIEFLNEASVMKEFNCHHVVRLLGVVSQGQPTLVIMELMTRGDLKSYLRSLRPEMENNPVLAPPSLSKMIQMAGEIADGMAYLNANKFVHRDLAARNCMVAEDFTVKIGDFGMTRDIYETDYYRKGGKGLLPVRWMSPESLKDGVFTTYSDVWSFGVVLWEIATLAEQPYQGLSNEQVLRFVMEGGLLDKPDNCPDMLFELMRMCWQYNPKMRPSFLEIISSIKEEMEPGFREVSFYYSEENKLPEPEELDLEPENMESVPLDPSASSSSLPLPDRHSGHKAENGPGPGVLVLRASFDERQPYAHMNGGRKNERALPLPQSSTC

| IC50 [1] | IC50 [2] | IC50 [3] | IC50 [5] | SMILES | IC50 [4, 6] | IC50 ([4]; NIH3T3) |
| --- | --- | --- | --- | --- | --- | --- |
| < 0.2 µM | < 0.2 µM | < 0.2 µM | – | c1cc(Nc2cc(C3CCCC3)[nH]n2)nc(NCc2cc(C3CC3)no2)n1 [Example 14, N′-(5-cyclopentyl-2H-pyrazol-3-yl)-N-[(3-cyclopropyl-1,2-oxazol-5-yl)methyl]pyrimidine-2,4-diamine] | – | – |
| < 1 µM | < 0.2 µM | < 0.2 µM | – | CC(C)Cc1cc(Nc2ccnc(NCc3cc(C4CC4)no3)n2)n[nH]1 [Example 16, N-[(3-cyclopropyl-1,2-oxazol-5-yl)methyl]-N′-[5-(2-methylpropyl)-2H-pyrazol-3-yl]pyrimidine-2,4-diamine] | – | – |
| < 10 µM | – | < 1 µM | > 10 µM | COc1ccccc1CCc1cc(Nc2ccnc(NCc3cc(C)no3)n2)n[nH]1 [Example 31, N′-[5-[2-(2-methoxyphenyl)ethyl]-1H-pyrazol-3-yl]-N-[(3-methyl1,2-oxazol-5-yl)methyl]pyrimidine-2,4-diamine hydrochloride] | < 10 µM | – |
| < 10 µM | – | < 10 µM | > 10 µM | Cc1cc(CNc2nccc(Nc3cc(COc4ccccc4)[nH]n3)n2)on1 [Example 34, N-[(3-methyl-1,2-oxazol-5-yl)methyl]-N′-[5-(phenoxymethyl)-2H-pyrazol-3-yl]pyrimidine-2,4-diamine] | < 10 µM | – |
| < 10 µM | – | < 10 µM | 0.1 to 1 µM | Cc1cc(CNc2nccc(Nc3cc(CCc4cccc(OCc5ccccc5)c4)n[nH]3)n2)on1 [Example 38, N-[(3-methyl1,2-oxazol-5-yl)methyl]-N′-[5-[2-(3-phenylmethoxyphenyl)ethyl]-2H-pyrazol-3-yl]pyrimidine-2,4-diamine] | < 1 µM | – |
| < 10 µM | – | < 10 µM | > 10 µM | Cc1cc(CNc2nccc(Nc3cc(CCc4ccccc4OCc4ccccc4)[nH]n3)n2)on1 [Example 39, N-[(3-methyl1,2-oxazol-5-yl)methyl]-N′-[5-[2-(2-phenylmethoxyphenyl)ethyl]-1H-pyrazol-3-yl]pyrimidine-2,4-diamine hydrochloride] | < 1 µM | – |
| < 10 µM | – | < 1 µM | 1 to 10 µM | COCCOc1cccc(CCc2cc(Nc3ccnc(NCc4cc(C)no4)n3)n[nH]2)c1 [Example 40, N′-[5-[2-[3-(2-methoxyethoxy)phenyl]ethyl]-2H-pyrazol-3-yl]-N-[(3-methyl1,2-oxazol-5-yl)methyl]pyrimidine-2,4-diamine] | < 1 µM | – |
| < 10 µM | – | < 0.2 µM | > 10 µM | Cc1cc(CNc2nccc(Nc3cc(CCc4cc(O)cc(O)c4)[nH]n3)n2)on1 [Example 43, 5-[2-[5-[[2-[(3-methyl1,2-oxazol-5-yl)methylamino]pyrimidin-4-yl]amino]-1H-pyrazol-3-yl]ethyl]benzene-1,3-diol] | < 1 µM | – |
| < 1 µM | – | < 1 µM | 1 to 10 µM | COc1ccc(CCc2cc(Nc3ccnc(NCc4cc(C)no4)n3)n[nH]2)c(C)c1 [Example 47, N′-[5-[2-(4-methoxy-2-methyl-phenyl)ethyl]-2H-pyrazol-3-yl]-N-[(3-methyl1,2-oxazol-5-yl)methyl]pyrimidine-2,4-diamine] | < 1 µM | – |
| < 10 µM | – | < 1 µM | > 10 µM | Cc1cc(CNc2nccc(Nc3cc(CCc4cccc(C#N)c4)[nH]n3)n2)on1 [Example 48, 3-[2-[5-[[2-[(3-methyl-1,2-oxazol-5-yl)methylamino]pyrimidin-4-yl]amino]-2H-pyrazol-3-yl]ethyl]benzonitrile] | < 10 µM | – |
| < 0.2 µM | < 0.2 µM | < 0.2 µM | 1 to 10 µM | Oc1cccc(CCc2cc(Nc3ccnc(NCc4cc(C5CC5)no4)n3)n[nH]2)c1 [Example 56, 3-[2-[5-[[2-[(3-cyclopropyl-1,2-oxazol-5-yl)methylamino]pyrimidin-4-yl]amino]-1H-pyrazol-3-yl]ethyl]phenol] | – | – |
| < 0.2 µM | < 1 µM | < 1 µM | – | Cc1cc(CNc2nccc(Nc3cc(CCc4cc(F)cc(Cl)c4)[nH]n3)n2)on1 [Example 57, N′-[5-[2-(3-chloro-5-fluoro-phenyl)ethyl]-2H-pyrazol-3-yl]-N-[(3-methyl-1,2-oxazol-5-yl)methyl]pyrimidine-2,4-diamine] | – | – |
| < 30 µM | < 30 µM | < 1 µM | – | Cc1cc(CNc2nccc(Nc3cc(CCc4cccc(CN)c4)[nH]n3)n2)on1 [Example 58, N′-[5-[2-[3-(aminomethyl)phenyl]ethyl]-1H-pyrazol-3-yl]-N-[(3-methyl-1,2-oxazol-5-yl)methyl]pyrimidine-2,4-diamine] | – | – |
| < 30 µM | < 30 µM | < 1 µM | – | Cc1cc(CNc2nccc(Nc3cc(CCc4cccc(C(=O)N(C)C)c4)[nH]n3)n2)on1 [Example 59, N,N-dimethyl-3-[2-[5-[[2-[(3-methyl-1,2-oxazol-5-yl)methylamino]pyrimidin-4-yl]amino]-2H-pyrazol-3-yl]ethyl]benzamide] | – | – |
| < 1 µM | < 1 µM | < 1 µM | > 10 µM | COc1cc(CCc2cc(Nc3ccnc(NCc4cc(C)no4)n3)n[nH]2)c(F)cn1 [Example 62, N′-[5-[2-(5-fluoro-2-methoxy-pyridin-4-yl)ethyl]-1H-pyrazol-3-yl]-N-[(3-methyl-1,2-oxazol-5-yl)methyl]pyrimidine-2,4-diamine hydrochloride] | – | – |
| < 10 µM | < 10 µM | < 0.2 µM | – | CN(C)Cc1cc(CNc2nccc(Nc3cc(CCc4cccc(O)c4)n[nH]3)n2)on1 [Example 63, 3-[2-[5-[[2-[[3-(dimethylaminomethyl)-1,2-oxazol-5-yl]methylamino]pyrimidin-4-yl]amino]-1H-pyrazol-3-yl]ethyl]phenol] | – | – |
| < 10 µM | < 10 µM | < 1 µM | – | CNC(=O)c1cc(CNc2nccc(Nc3cc(CCc4cccc(OC)c4)n[nH]3)n2)on1 [Example 64, 5-[[[4-[[5-[2-(3-methoxyphenyl)ethyl]-2H-pyrazol-3-yl]amino]pyrimidin-2-yl]amino]methyl]-N-methyl-1,2-oxazole-3-carboxamide] | – | – |
| < 10 µM | < 10 µM | < 0.2 µM | 1 to 10 µM | CNC(=O)c1cc(CNc2nccc(Nc3cc(CCc4cccc(O)c4)n[nH]3)n2)on1 [Example 65, 5-[[[4-[[5-[2-(3-hydroxyphenyl)ethyl]-2H-pyrazol-3-yl]amino]pyrimidin-2-yl]amino]methyl]-N-methyl-1,2-oxazole-3-carboxamide] | – | – |
| < 10 µM | – | < 0.2 µM | – | CC(C)Oc1cc(Nc2ccnc(NCc3cc(C(N)=O)no3)n2)[nH]n1 [Example 78, 5-[[[4-[(5-propan-2-yloxy-2H-pyrazol-3-yl)amino]pyrimidin-2-yl]amino]methyl]-1,2-oxazole-3-carboxamide] | < 1 µM | – |
| < 0.2 µM | < 0.2 µM | < 0.2 µM | 0.1 to 1 µM | CC(C)Oc1cc(Nc2ccnc(NCc3cc(C4CCC4)no3)n2)n[nH]1 [Example 102, N-[(3-cyclobutyl-1,2-oxazol-5-yl)methyl]-N′-(5-propan-2-yloxy-1H-pyrazol-3-yl)pyrimidine-2,4-diamine] | – | – |
| < 0.2 µM | < 0.2 µM | < 0.2 µM | 1 to 10 µM | c1ccc(COc2cc(Nc3ccnc(NCc4cc(C5CC5)no4)n3)n[nH]2)cc1 [Example 103, N-[(3-cyclopropyl-1,2-oxazol-5-yl)methyl]-N′-(5-phenylmethoxy-2H-pyrazol-3-yl)pyrimidine-2,4-diamine] | – | – |
| < 10 µM | – | < 0.2 µM | – | Cc1cc(CNc2nccc(Nc3cc(OCc4ccoc4)[nH]n3)n2)on1 [Example 108, N′-[5-(3-furylmethoxy)-1H-pyrazol-3-yl]-N-[(3-methyl1,2-oxazol-5-yl)methyl]pyrimidine-2,4-diamine] | < 1 µM | – |
| < 1 µM | < 0.2 µM | < 0.2 µM | 1 to 10 µM | c1coc(-c2cc(Nc3ccnc(NCc4cc(C5CC5)no4)n3)n[nH]2)c1 [Example 120, N-[(3-cyclopropyl-1,2-oxazol-5-yl)methyl]-N′-[5-(2-furyl)-2H-pyrazol-3-yl]pyrimidine-2,4-diamine] | – | – |

| SMILES | IC50 [1] | IC50 [2] | IC50 [3] | IC50 [5] | IC50 [4, 6] | IC50 ([4]; NIH3T3) |
| --- | --- | --- | --- | --- | --- | --- |
| COc1ccc(CCc2cc(Nc3ccnc(NCc4cc(C)no4)n3)n[nH]2)cc1OC [Example 46, N′-[5-[2-(3,4-dimethoxyphenyl)ethyl]-1H-pyrazol-3-yl]-N-[(3-methyl1,2-oxazol-5-yl)methyl]pyrimidine-2,4-diamine hydrochloride] | < 10 µM | – | – | 1 to 10 µM | – | < 10 µM |
